This note sets out measurements from ChEMBL document CHEMBL3046390, “Multifunctionalised benzoxazinones in the systems Oryza sativa-Echinochloa crus-galli and Triticum aestivum-Avena fatua as natural-product-based herbicide leads” (Pest Manag Sci, 2010).

pIC50: −log10 of the molar value. Active and inactive are the calls of the source. The calls are words filed in the database; no cut-off is given here.

Data set [1] in a line: Phytotoxicity against Triticum aestivum (wheat) assessed as inhibition of root elongation at 114 uM after 5 days relative to control. Type of data set: organism-based. The note with it: in vivo.
Data set [2] in a line: Selectivity idex, ratio of IC50 for root elongation in Triticum aestivum to IC50 for root elongation in Avena fatua.
Data set [3] can be described thus: Selectivity idex, ratio of IC50 for root elongation in Oryza sativa to IC50 for root elongation in Echinochloa crus-galli.
The test system of data set [4] is Triticum aestivum. In words: Phytotoxicity against Triticum aestivum (wheat) assessed as inhibition of root elongation after 5 days relative to control. Type of data set: organism-based. The note with it: 120 h.
Data set [5] has as its system Avena fatua. The data set is described as follows: Herbicidal activity against Avena fatua assessed as inhibition of root elongation at 114 uM after 5 days relative to control. Type of data set: functional. To be noted: 120 h.
The subject of data set [6] is Avena fatua. The data set is described as follows: Herbicidal activity against Avena fatua assessed as inhibition of shoot length at 0.05 uM to 1 mM after 5 days relative to control. Type of data set: functional, organism-based.
The subject of data set [7] is Avena fatua. In words: Herbicidal activity against Avena fatua assessed as inhibition of root length after 5 days relative to control. To be noted: 120 h. Type of data set: functional, organism-based.
Data set [8] deals with Avena fatua. In words: Herbicidal activity against Avena fatua assessed as inhibition of seed germination at 0.05 uM to 1 mM after 5 days relative to control. Type of data set: functional, organism-based.
For data set [9], the system named is Echinochloa crus-galli. The data set is described as follows: Herbicidal activity against Echinochloa crus-galli (barnyard grass) assessed as inhibition of root length after 5 days relative to control. The data set is classed as functional, organism-based. To be noted: 120 h.
For data set [10], the system named is Echinochloa crus-galli. The data set is described as follows: Herbicidal activity against Echinochloa crus-galli (barnyard grass) assessed as inhibition of shoot length at 0.05 uM to 1 mM after 5 days relative to control. The data set is classed as functional, organism-based.
The test system of data set [11] is Echinochloa crus-galli. The data set is described as follows: Herbicidal activity against Echinochloa crus-galli (barnyard grass) assessed as inhibition of seed germination at 0.05 uM to 1 mM after 5 days relative to control. The data set is classed as functional, organism-based.
Data set [12] deals with Triticum aestivum. In words: Phytotoxicity against Triticum aestivum (wheat) assessed as inhibition of seed germination at 10 uM to 1 mM after 5 days relative to control. The data set is classed as organism-based. To be noted: in vivo, 120 h.
The subject of data set [13] is Oryza sativa. In words: Phytotoxicity against Oryza sativa (rice) assessed as inhibition of root elongation after 7 days relative to control. The data set is classed as organism-based. The note with it: 168 h.
Data set [14] has as its system Oryza sativa. The data set is described as follows: Phytotoxicity against Oryza sativa (rice) assessed as inhibition of seed germination at 10 uM to 1 mM after 7 days relative to control. The note with it: in vivo, 168 h. The data set is classed as organism-based.
Data set [15] deals with Echinochloa crus-galli. The data set is described as follows: Ratio of Contanil IC50 to compound IC50 for root elongation in Echinochloa crus-galli (barnyard grass). The data set is classed as functional.
Data set [16] in a line: Phytotoxicity against Triticum aestivum (wheat) assessed as inhibition of root elongation at 6 uM after 5 days relative to control. The data set is classed as organism-based. To be noted: in vivo.
The subject of data set [17] is Avena fatua. In words: Herbicidal activity against Avena fatua assessed as inhibition of root elongation at 6 uM after 5 days relative to control. Type of data set: functional. The note with it: 120 h.
Data set [18] deals with Echinochloa crus-galli. The data set is described as follows: Herbicidal activity against Echinochloa crus-galli (barnyard grass) assessed as inhibition of root elongation at 52 uM after 5 days relative to control. To be noted: 120 h. Type of data set: functional.
Data set [19] is described as follows: Phytotoxicity against Oryza sativa (rice) assessed as inhibition of root elongation at 52 uM after 7 days relative to control. Type of data set: organism-based. The note with it: in vivo.

For orientation: inhibition means the change of the read-out against control, counted positive when it falls. As a reminder, the pIC50 is −log10 of the IC50, conventionally taken in molar units. For the compound `CCCCC(=O)ON1C(=O)COc2c(Cl)cccc21`, the inhibition at 120 h, 114 µM in data set [1] amounted to 18%. The figures for the Ratio IC50 in [2] and in data set [3] were 14.4 and 11.1, respectively. Moreover, the negative-log IC50 (pIC50) was 2.79 in the data set on Triticum aestivum [4], 3.94 in the data set on Avena fatua [7], 4.19 in the data set with Echinochloa crus-galli [9] and 3.15 in the data set on Oryza sativa [13]. The inhibition at 114 µM in the data set on Avena fatua [5] is 70%. Besides, the inhibition entry in the data set with Avena fatua [6], in the data set with Avena fatua [8], with Echinochloa crus-galli [10] and in the data set with Echinochloa crus-galli [11] was “Active” each time. Moreover, the Activity entry in the data set on Triticum aestivum [12] and in the data set on Oryza sativa [14] was “Non-toxic” in each case.
On to `CCC1Oc2ccc(F)cc2N(O)C1=O` [6-F-2-Et-D-DIBOA], for which the Ratio IC50 in data set [2] is 2.59; in data set [3], 0.58. For the same compound, the pIC50 is 4.20 with Triticum aestivum [4], 4.61 in the data set with Avena fatua [7], 4.60 in the data set with Echinochloa crus-galli [9] and 4.82 with Oryza sativa [13]. Also, the inhibition entry in the data set with Avena fatua [6], in the data set on Avena fatua [8], with Echinochloa crus-galli [10] and in the data set on Echinochloa crus-galli [11] was “Active” in each case. For the same compound, the Activity entry in the data set on Triticum aestivum [12] and in the data set on Oryza sativa [14] was “Non-toxic” each time.
Take `O=C1C(c2ccccc2)Oc2ccc(F)cc2N1O` [6-F-2-Ph-D-DIBOA]: the Ratio IC50 was 3.65 in data set [2] and 5.86 in data set [3]. Further, the pIC50 was 3.19 with Triticum aestivum [4], 3.75 in the data set with Avena fatua [7], 3.68 in the data set on Echinochloa crus-galli [9] and 2.91 in the data set with Oryza sativa [13]. Besides, the inhibition entry in the data set with Avena fatua [6], with Avena fatua [8], with Echinochloa crus-galli [10] and in the data set with Echinochloa crus-galli [11] was “Active” each time. Also, the Activity result in the data set on Triticum aestivum [12] and in the data set with Oryza sativa [14] was “Non-toxic” throughout.
Regarding `CCCCC(=O)ON1C(=O)COc2ccc(F)cc21` [6-F-4-Val-D-DIBOA], the values for the Ratio IC50 (in data set [2]; in data set [3]; in the data set on Echinochloa crus-galli [15]) were 8.92, 0.78 and 12, respectively. Further, the negative logarithm of the IC50 (pIC50) in the data set on Triticum aestivum [4] is 4.23; with Avena fatua [7], 5.19; with Echinochloa crus-galli [9], 5.10; with Oryza sativa [13], 5.22. Also, the inhibition result with Avena fatua [6], in the data set with Avena fatua [8], in the data set with Echinochloa crus-galli [10] and in the data set on Echinochloa crus-galli [11] was “Active” throughout. Moreover, the Activity entry in the data set on Triticum aestivum [12] and with Oryza sativa [14] was “Non-toxic” each time.
In the case of `CCC(=O)ON1C(=O)COc2ccc(F)cc21` [6F-4Pr-D-DIBOA], the inhibition at 120 h, 6 µM in [16] is 25%. Moreover, the figures for the Ratio IC50 (in data set [2]; in [3]; in the data set on Echinochloa crus-galli [15]) were 13.2, 0.36 and 12, respectively. Further, the pIC50 in the data set with Triticum aestivum [4] was 4.09; in the data set on Avena fatua [7], 5.21; with Echinochloa crus-galli [9], 5.05; in the data set on Oryza sativa [13], 5.52. For the same compound, the inhibition at 6 µM in the data set on Avena fatua [17] is 70%. In addition, the inhibition result in the data set with Avena fatua [6], with Avena fatua [8], in the data set on Echinochloa crus-galli [10] and with Echinochloa crus-galli [11] was “Active” in each case. Besides, the Activity result in the data set on Triticum aestivum [12] and in the data set with Oryza sativa [14] was “Non-toxic” each time.
As for `CCC1Oc2c(Cl)cccc2N(O)C1=O` [8-Cl-2-Et-D-DIBOA], the results for the Ratio IC50 in data set [2] and in data set [3] were 2.25 and 2.11, respectively. In addition, the pIC50 was 3.46 in the data set with Triticum aestivum [4], 3.81 in the data set on Avena fatua [7], 3.84 in the data set on Echinochloa crus-galli [9] and 3.52 with Oryza sativa [13]. In addition, the inhibition entry in the data set with Avena fatua [6], in the data set on Avena fatua [8], in the data set on Echinochloa crus-galli [10] and with Echinochloa crus-galli [11] was “Active” in each case. Moreover, the Activity result with Triticum aestivum [12] and in the data set with Oryza sativa [14] was “Non-toxic” throughout.
Turning to `O=C1C(c2ccccc2)Oc2c(Cl)cccc2N1O` [8-Cl-2-Ph-D-DIBOA], the Ratio IC50 in data set [2] amounted to 1.75; in data set [3], 3.51. The pIC50 with Triticum aestivum [4] was 3.58; with Avena fatua [7], 3.82; with Echinochloa crus-galli [9] it was 3.96; in the data set with Oryza sativa [13] it was 3.42. In addition, the inhibition result in the data set on Avena fatua [6], in the data set with Avena fatua [8], in the data set on Echinochloa crus-galli [10] and in the data set with Echinochloa crus-galli [11] was “Active” in each case. Also, the Activity entry in the data set on Triticum aestivum [12] and in the data set on Oryza sativa [14] was “Non-toxic” in each case.
Regarding `CCCC1Oc2c(Cl)cccc2N(O)C1=O` [8-Cl-2-Pr-D-DIBOA], the Ratio IC50 in data set [2] came to 5.37; in data set [3], 7.44. Further, the negative logarithm of the IC50 (pIC50) with Triticum aestivum [4] was 3.41; in the data set with Avena fatua [7], 4.14; in the data set on Echinochloa crus-galli [9] it was 4.08; in the data set on Oryza sativa [13] it was 3.21. The inhibition entry with Avena fatua [6], with Avena fatua [8], in the data set on Echinochloa crus-galli [10] and in the data set with Echinochloa crus-galli [11] was “Active” each time. Also, the Activity entry in the data set on Triticum aestivum [12] and in the data set with Oryza sativa [14] was “Non-toxic” in each case.
On to `CCC(=O)ON1C(=O)COc2c(Cl)cccc21` [8-Cl-4-Pr-D-DIBOA], for which the Ratio IC50 in data set [2] turned out to be 4.06; in data set [3], 16.6. Further, the negative-log IC50 (pIC50) in the data set on Triticum aestivum [4] is 2.89; in the data set on Avena fatua [7], 3.49; with Echinochloa crus-galli [9] it was 4.28; in the data set with Oryza sativa [13] it was 3.07. The inhibition at 52 µM in the data set on Echinochloa crus-galli [18] amounted to 70%. The inhibition at 168 h, 52 µM in data set [19] was found to be 8%. Also, the inhibition result in the data set on Avena fatua [6], in the data set on Avena fatua [8], in the data set on Echinochloa crus-galli [10] and in the data set with Echinochloa crus-galli [11] was “Active” throughout. Moreover, the Activity entry in the data set with Triticum aestivum [12] and in the data set with Oryza sativa [14] was “Non-toxic” each time.
